Experimental data as given in publication PMC7864197, “High-Content Analysis-Based Sensitivity Prediction and Novel Therapeutics Screening for c-Met-Addicted Glioblastoma” (Cancers, 2021).

Target: c-Met (MET kinase) (Homo sapiens, UniProt P08581)
Test: ADP-Glo MET kinase enzyme system (in vitro kinase assay)
Type: biochemical

Sequence of c-Met (MET kinase) (P08581 25-307): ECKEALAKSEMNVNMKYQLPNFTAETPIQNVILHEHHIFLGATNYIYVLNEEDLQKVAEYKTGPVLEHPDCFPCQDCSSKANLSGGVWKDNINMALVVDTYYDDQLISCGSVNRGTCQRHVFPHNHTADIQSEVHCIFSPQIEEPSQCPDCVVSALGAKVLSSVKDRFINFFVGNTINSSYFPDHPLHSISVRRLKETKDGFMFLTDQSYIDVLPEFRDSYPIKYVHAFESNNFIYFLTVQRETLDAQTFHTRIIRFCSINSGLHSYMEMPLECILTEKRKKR
Sequence of c-Met (MET kinase) (P08581 308-1390): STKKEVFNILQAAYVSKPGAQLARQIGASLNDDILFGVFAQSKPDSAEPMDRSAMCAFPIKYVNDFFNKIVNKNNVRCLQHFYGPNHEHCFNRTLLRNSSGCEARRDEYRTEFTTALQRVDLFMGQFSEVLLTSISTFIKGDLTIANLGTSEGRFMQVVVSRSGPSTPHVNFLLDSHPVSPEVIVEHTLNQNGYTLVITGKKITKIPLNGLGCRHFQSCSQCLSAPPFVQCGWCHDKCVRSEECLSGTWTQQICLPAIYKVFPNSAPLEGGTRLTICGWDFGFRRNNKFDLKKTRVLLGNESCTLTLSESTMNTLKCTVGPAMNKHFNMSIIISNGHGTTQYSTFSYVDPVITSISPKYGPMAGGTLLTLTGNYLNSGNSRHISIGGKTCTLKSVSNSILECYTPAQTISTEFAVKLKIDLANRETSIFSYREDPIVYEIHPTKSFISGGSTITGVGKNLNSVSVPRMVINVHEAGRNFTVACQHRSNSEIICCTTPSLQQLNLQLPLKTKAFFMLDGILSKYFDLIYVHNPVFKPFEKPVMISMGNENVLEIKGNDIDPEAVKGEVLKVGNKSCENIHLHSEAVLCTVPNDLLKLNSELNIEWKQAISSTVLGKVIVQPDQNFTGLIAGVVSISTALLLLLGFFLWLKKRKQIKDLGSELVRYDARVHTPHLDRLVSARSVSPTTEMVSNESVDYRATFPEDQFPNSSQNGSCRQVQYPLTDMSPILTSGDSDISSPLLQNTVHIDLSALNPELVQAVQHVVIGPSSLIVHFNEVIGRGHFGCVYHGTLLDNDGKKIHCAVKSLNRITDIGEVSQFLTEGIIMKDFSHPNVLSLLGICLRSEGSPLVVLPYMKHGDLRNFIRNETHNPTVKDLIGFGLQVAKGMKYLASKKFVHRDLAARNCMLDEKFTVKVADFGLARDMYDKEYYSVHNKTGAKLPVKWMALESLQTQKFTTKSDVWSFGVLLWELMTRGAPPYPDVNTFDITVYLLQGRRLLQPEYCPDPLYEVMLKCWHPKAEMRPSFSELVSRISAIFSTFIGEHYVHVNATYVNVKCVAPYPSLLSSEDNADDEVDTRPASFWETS

CCN1CCN(Cc2ccc(Nc3ncc(F)c(-c4cc(F)c5nc(C)n(C(C)C)c5c4)n3)nc2)CC1 [Abemaciclib]
ADP-Glo MET kinase enzyme system (in vitro kinase assay): abemaciclib was shown to inhibit kinase activity of c-Met at high concentrations
